Data on 21 compounds can be found in US10875851B2, “Factor XIIa inhibitors” (Merck Sharp & Dohme Corp., priority 2016, dated 2020).

The structures appear in SMILES notation. pIC50: −log10 of the molar value.

The term pIC50 denotes −log10 of the IC50, conventionally taken in molar units.

human Factor XIIa, sequence (P00748 373-615): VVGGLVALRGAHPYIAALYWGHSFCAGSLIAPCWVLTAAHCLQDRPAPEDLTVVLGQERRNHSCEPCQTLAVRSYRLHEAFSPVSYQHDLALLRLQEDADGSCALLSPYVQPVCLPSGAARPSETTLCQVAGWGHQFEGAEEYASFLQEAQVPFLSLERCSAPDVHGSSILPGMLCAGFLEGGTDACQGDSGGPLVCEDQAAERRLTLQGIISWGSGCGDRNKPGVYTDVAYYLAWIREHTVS

The assay concerns the target human Factor XIIa (Homo sapiens (Human), UniProt P00748). The assay is described as follows: Factor XIIa Assay. In kind it is biochemical. The conditions noted are these: purified human Factor XIIa 500 pM; substrate n-Acetyl-Lys-Pro-Arg-AFC 100 μM; pH 7.4; read-out: FXIIa IC50. Here is the method: The effectiveness of a compound of the present invention as an inhibitor of Coagulation Factor XIIa can be determined using a relevant purified serine protease, and an appropriate synthetic substrate. The rate of hydrolysis of the chromogenic or fluorogenic substrate by the relevant serine protease was measured both in the absence and presence of compounds of the present invention. Assays were conducted at room temperature or at 37° C. […] A decrease in the rate of fluorescence change in the presence of inhibitor is indicative of enzyme inhibition. Such methods are known to one skilled in the art.
Factor XIIa activity determinations were made in 50 mM HEPES buffer containing 150 mM NaCl, 5 mM CaCl2, and 0.1% PEG 8000 (polyethylene glycol; JT Baker or Fisher Scientific) at pH 7.4. Determinations were made using purified human Factor XIIa at a final concentration of 500 pM (Sekisui Diagnostics) and the synthetic substrate, n-Acetyl-Lys-Pro-Arg-AFC, TFA salt (Sigma #C6608) at a concentration of 100 μM.
Times required to achieve equilibration between enzyme and inhibitor were determined in control experiments. Initial velocities of product formation in the absence (Vo) or presence of inhibitor (Vi) were measured. IC50 was determined as the concentration of I yielding Vi=Vo/2.
With `COc1cc(CNC(=O)[C@@H]2CN(C(=O)Oc3ccc4ccccc4c3Cl)CCN2C(=O)[C@@H](CCCCNS(C)(=O)=O)NC2CCC3(CC2)CCN(Cc2ccccc2)C3)ccc1CN` (stereo partly drawn) [Example 74, 1-chloronaphthalen-2-yl (3S)-3-{[4-(aminomethyl)-3-methoxybenzyl]carbamoyl}-4-[N^2-(2-benzyl-2-azaspiro[4.5]dec-8-yl)-N^6-(methylsulfonyl)-D-lysyl]piperazine-1-carboxylate], the negative-log IC50 (pIC50) was 8.43.

For `COC(N)c1cccc(OC(=O)N2CCN(C(=O)[C@@H](CCCCNS(C)(=O)=O)NC3CCC4(CC3)CCN(Cc3ccccc3)C4)[C@H](C(=O)NCc3cccs3)C2)c1` (stereo partly drawn) [Example 75, 3-[amino(methoxy)methyl]phenyl (3S)-4-[N^2-(2-benzyl-2-azaspiro[4.5]dec-8-yl)-N^6-(methylsulfonyl)-D-lysyl]-3-[(thiophen-2-ylmethyl)carbamoyl]piperazine-1-carboxylate], the pIC50 is 8.24.

As for `COc1cc(CNC(=O)[C@@H]2CN(C(=O)Oc3cccc(CN)c3)CCN2C(=O)[C@@H](CCCCNS(C)(=O)=O)NC2CCC3(CC2)CCN(Cc2ccccc2)C3)ccc1CN` (stereo partly drawn) [Example 76, 3-(aminomethyl)phenyl (3S)-3-{[4-(aminomethyl)-3-methoxybenzyl]carbamoyl}-4-[N^2-(2-benzyl-2-azaspiro[4.5]dec-8-yl)-N^6= (methylsulfonyl)-D-lysyl]piperazine-1-carboxylate], the pIC50 was 8.39.

With `O=C(NCc1cccs1)[C@@H]1CN(C(=O)Oc2ccccc2Cl)CCN1C(=O)[C@@H](CCCCN1CCCS1(=O)=O)NC1CCCCC1` [Example 77, 2-chlorophenyl (3S)-4-[N-cyclohexyl-6-(1,1-dioxidoisothiazolidin-2-yl)-D-norleucyl]-3-[(thiophen-2-ylmethyl)carbamoyl]piperazine-1-carboxylate], the pIC50 is 8.34.

Consider `CN(C)CCCC[C@@H](NC1CCC2(CC1)CCN(Cc1ccccc1)C2)C(=O)N1CCN(C(=O)Oc2ccccc2Cl)C[C@H]1C(=O)NCc1cccs1` (stereo partly drawn) [Example 78, 2-chlorophenyl (3S)-4-[N^2-(2-benzyl-2-azaspiro[4.5]dec-8-yl)-N^6,N^6-dimethyl-D-lysyl]-3-[(thiophen-2-ylmethyl)carbamoyl]piperazine-1-carboxylate], for which the pIC50 is 9.05.

For the compound `CS(=O)(=O)NCCCC[C@@H](NC1CCC2(CC1)CCN(Cc1ccccc1)C2)C(=O)N1CCN(C(=O)Oc2cccc3c2CCNC3)C[C@H]1C(=O)NCc1cccs1` (stereo partly drawn) [Example 81, 1,2,3,4-tetrahydroisoquinolin-5-yl (3S)-4-[N^2-(2-benzyl-2-azaspiro[4.5]dec-8-yl)-N^6-(methylsulfonyl)-D-lysyl]-3-[(thiophen-2-ylmethyl)carbamoyl]piperazine-1-carboxylate], the pIC50 is 8.47.

As for `CS(=O)(=O)NCCCC[C@@H](NC1CCC2(CC1)CCN(Cc1ccccc1)C2)C(=O)N1CCN(C(=O)Oc2cccc(CN)c2Cl)C[C@H]1C(=O)NCc1cccs1` (stereo partly drawn) [Example 82, 3-(aminomethyl)-2-chlorophenyl (3S)-4-[N^2-(2-benzyl-2-azaspiro[4.5]dec-8-yl)-N^6-(methylsulfonyl)-D-lysyl]-3-[(thiophen-2-ylmethyl)carbamoyl]piperazine-1-carboxylate], the pIC50 was 8.68.

As for `COc1cc(CNC(=O)[C@@H]2CN(C(=O)Oc3ccccc3Cl)CCN2C(=O)[C@@H](CCCCNS(C)(=O)=O)NC2CCC3(CC2)CCN(Cc2ccccc2)C3)ccc1CN` (stereo partly drawn) [Example 85, 2-chlorophenyl (3S)-3-{[4-(aminomethyl)-3-methoxybenzyl]carbamoyl}-4-[N^2-(2-benzyl-2-azaspiro[4.5]dec-8-yl)-N^6-(methylsulfonyl)-D-lysyl]piperazine-1-carboxylate], the pIC50 is 8.08.

Consider `COc1cc(CNC(=O)[C@@H]2CN(C(=O)Oc3ccc4ccccc4c3Cl)CCN2C(=O)[C@@H](CCCCN(C)C)N(C)C2CCC3(CC2)CCN(Cc2ccccc2)C3)ccc1CN` (stereo partly drawn) [Example 87, 1-chloronaphthalen-2-yl (3S)-3-{[4-(aminomethyl)-3-methoxybenzyl]carbamoyl}-4-[N^2-(2-benzyl-2-azaspiro[4.5]dec-8-yl)-N^2,N^6,N^6-trimethyl-D-lysyl]piperazine-1-carboxylate], for which the pIC50 is 9.00.

Take `O=C(NCc1cccs1)[C@@H]1CN(C(=O)Oc2ccccc2Cl)CCN1C(=O)[C@@H](CCCCN1CCCCC1)NC1CCC2(CC1)CCN(Cc1ccccc1)C2` (stereo partly drawn) [Example 88, 2-chlorophenyl (3S)-4-[N-(2-benzyl-2-azaspiro[4.5]dec-8-yl)-6-piperidin-1-yl-D-norleucyl]-3-[(thiophen-2-ylmethyl)carbamoyl]piperazine-1-carboxylate]: the pIC50 was 9.05.

On to `COc1cc(CNC(=O)[C@@H]2CN(C(=O)Oc3ccc4ccccc4c3Cl)CCN2C(=O)[C@H](N)CCCCN(C)C)ccc1CN` [Example 89, 1-chloronaphthalen-2-yl (3S)-3-{[4-(aminomethyl)-3-methoxybenzyl]carbamoyl}-4-(N^6,N^6-dimethyl-D-lysyl)piperazine-1-carboxylate], for which the pIC50 is 8.77.

For the compound `CN(C)CCCC[C@@H](NC1CCC2(CC1)CCN(Cc1ccccc1)C2)C(=O)N1CCN(C(=O)Oc2ccccc2Cl)C[C@H]1C(=O)NCc1cccs1` (stereo partly drawn) [Example 90, 2-chlorophenyl (3S)-4-[N^2-(2-benzyl-2-azaspiro[4.5]dec-8-yl)-N^6,N^6-dimethyl-D-lysyl]-3-[(thiophen-2-ylmethyl)carbamoyl]piperazine-1-carboxylate], the pIC50 was 9.15.

Take `COc1cc(CNC(=O)[C@@H]2CN(C(=O)Oc3ccc4ccccc4c3Cl)CCN2C(=O)[C@@H](CCCCN(C)C)NC2CCC(CN)CC2)ccc1CN` (stereo partly drawn) [Example 92, 1-chloronaphthalen-2-yl (3S)-4-{N^2-[4-(aminomethyl)cyclohexyl]-N^6,N^6-dimethyl-D-lysyl}-3-{[4-(aminomethyl)-3-methoxybenzyl]carbamoyl}piperazine-1-carboxylate]: the pIC50 was 8.54.

Consider `CN(C)CCCC[C@@H](NC1CCC2(CC1)CCN(Cc1ccccc1)C2)C(=O)N1CCN(C(=O)CC2CCCC2)C[C@H]1C(=O)NCc1cccs1` (stereo partly drawn) [Example 93, (2S)-1-[N^2-(2-benzyl-2-azaspiro[4.5]dec-8-yl)-N^6,N^6-dimethyl-D-lysyl]-4-(cyclopentylacetyl)-N-(thiophen-2-ylmethyl)piperazine-2-carboxamide], for which the pIC50 was 7.63.

In the case of `Cc1ccc(OC(=O)N2CCN(C(=O)[C@@H](CC3CCCCC3)NC3CCCCC3)[C@H](C(=O)NCc3cccs3)C2)c(Cl)c1C` [Example 94, 2-chloro-3,4-dimethylphenyl (3S)-4-(N,3-dicyclohexyl-D-alanyl)-3-[(thiophen-2-ylmethyl)carbamoyl]piperazine-1-carboxylate], the pIC50 is 8.12.

Take `O=C(NCc1cccs1)[C@@H]1CN(C(=O)Oc2ccccc2Cl)CCN1C(=O)[C@@H](CCCCN1CCOCC1)NC1CCC2(CC1)CCN(Cc1ccccc1)C2` (stereo partly drawn) [Example 95, 2-chlorophenyl (3S)-4-[N-(2-benzyl-2-azaspiro[4.5]dec-8-yl)-6-morpholin-4-yl-D-norleucyl]-3-[(thiophen-2-ylmethyl)carbamoyl]piperazine-1-carboxylate]: the pIC50 is 8.74.

For the compound `CN(C)CCCC[C@H](C(=O)N1CCN(C(=O)Cc2cccc3c2CCNC3)C[C@H]1C(=O)NCc1cccs1)N(C)C1CCC2(CC1)CCN(Cc1ccccc1)C2` (stereo partly drawn) [Example 96, (2S)-1-[N^2-(2-benzyl-2-azaspiro[4.5]dec-8-yl)-N^2,N^6,N^6-trimethyl-D-lysyl]-4-(1,2,3,4-tetrahydroisoquinolin-5-ylacetyl)-N-(thiophen-2-ylmethyl)piperazine-2-carboxamide], the pIC50 is 7.92.

For the compound `O=C(NCc1cccs1)[C@@H]1CN(C(=O)Oc2ccccc2Cl)CCN1C(=O)[C@@H](CCCCN1CCCCC1)NC1CCCCC1` [Example 97, 2-chlorophenyl (3S)-4-(N-cyclohexyl-6-piperidin-1-yl-D-norleucyl)-3-[(thiophen-2-ylmethyl)carbamoyl]piperazine-1-carboxylate], the pIC50 was 9.15.

As to `Cc1ccc(OC(=O)N2CCN(C(=O)[C@H](N)CCCCN(C)C)[C@H](C(=O)NCc3cccs3)C2)c(Cl)c1C` [Example 98, 2-chloro-3,4-dimethylphenyl (3S)-4-(N^6,N^6-dimethyl-D-lysyl)-3-[(thiophen-2-ylmethyl)carbamoyl]piperazine-1-carboxylate], the pIC50 was 8.14.

For the compound `CN(C)CCCC[C@@H](NC1CCCCC1)C(=O)N1CCN(C(=O)CC2CCCC2)C[C@H]1C(=O)NCc1cccs1` [Example 99, (2S)-1-(N^2-cyclohexyl-N^6,N^6-dimethyl-D-lysyl)-4-(cyclopentylacetyl)-N-(thiophen-2-ylmethyl)piperazine-2-carboxamide], the negative logarithm of the IC50 (pIC50) is 7.53.

On to `Cc1ccc(OC(=O)N2CCN(C(=O)[C@@H](CCCCN(C)C)N(C)C3CCC4(CC3)CCN(Cc3ccccc3)C4)[C@H](C(=O)NCc3cccs3)C2)c(Cl)c1C` (stereo partly drawn) [Example 100, 2-chloro-3,4-dimethylphenyl (3S)-4-[N^2-(2-benzyl-2-azaspiro[4.5]dec-8-yl)-N^2,N^6,N^6-trimethyl-D-lysyl]-3-[(thiophen-2-ylmethyl)carbamoyl]piperazine-1-carboxylate], for which the pIC50 is 9.30.
